Legend:
JAK3 enzyme [1] = target: T1, JAK3 enzyme (Homo sapiens, UniProt P52333); experiment: JAK Caliper Enzyme Assay at 4 μM ATP; format: biochemical
T1 sequence (P52333 1-1124): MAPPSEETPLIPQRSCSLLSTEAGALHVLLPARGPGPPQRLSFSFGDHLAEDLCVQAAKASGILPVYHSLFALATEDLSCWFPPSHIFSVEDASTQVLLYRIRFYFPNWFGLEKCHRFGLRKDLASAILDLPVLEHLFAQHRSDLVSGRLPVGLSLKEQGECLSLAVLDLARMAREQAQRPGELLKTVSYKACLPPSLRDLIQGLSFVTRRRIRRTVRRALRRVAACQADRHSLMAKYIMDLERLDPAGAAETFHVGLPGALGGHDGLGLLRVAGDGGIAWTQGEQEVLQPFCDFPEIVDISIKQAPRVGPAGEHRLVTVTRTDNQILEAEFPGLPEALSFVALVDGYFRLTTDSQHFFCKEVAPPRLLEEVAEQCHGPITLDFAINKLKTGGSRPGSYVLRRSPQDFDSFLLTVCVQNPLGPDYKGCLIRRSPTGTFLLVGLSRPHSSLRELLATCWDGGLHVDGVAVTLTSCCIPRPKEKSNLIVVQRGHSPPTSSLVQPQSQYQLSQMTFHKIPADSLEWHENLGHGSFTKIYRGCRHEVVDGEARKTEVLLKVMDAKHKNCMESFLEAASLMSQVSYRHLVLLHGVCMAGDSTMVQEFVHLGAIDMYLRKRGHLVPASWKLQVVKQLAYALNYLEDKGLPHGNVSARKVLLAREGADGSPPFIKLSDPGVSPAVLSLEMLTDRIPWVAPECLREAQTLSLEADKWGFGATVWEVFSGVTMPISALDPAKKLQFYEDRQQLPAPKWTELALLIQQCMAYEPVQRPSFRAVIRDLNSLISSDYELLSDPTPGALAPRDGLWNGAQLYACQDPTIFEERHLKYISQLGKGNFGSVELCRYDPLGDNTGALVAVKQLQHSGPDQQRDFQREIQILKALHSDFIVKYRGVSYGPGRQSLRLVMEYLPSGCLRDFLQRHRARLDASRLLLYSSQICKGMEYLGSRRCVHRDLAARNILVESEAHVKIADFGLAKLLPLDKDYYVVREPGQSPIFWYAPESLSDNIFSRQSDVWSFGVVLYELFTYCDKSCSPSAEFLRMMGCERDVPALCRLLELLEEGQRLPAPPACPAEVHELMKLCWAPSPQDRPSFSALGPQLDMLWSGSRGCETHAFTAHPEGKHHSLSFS
Description: (§1) Test article was solubilized in dimethyl sulfoxide (DMSO) to a stock concentration of 30 mM. An 11-point half log dilution series was created in DMSO with a top concentration of 600 μM. […] Test article and assay controls were added to a 384-well plate. […] Enzyme concentrations and incubation times were optimized for each new enzyme preps and were modified slightly over time to ensure 20%-30% phosphorylation. […] The assay plates were placed on a Caliper Life Science Lab Chip 3000 (LC3000) instrument, and each well was sampled using appropriate separation conditions to measure the unphosphorylated and phosphorylated peptide.

JAK3 enzyme [2] = target: T1, JAK3 enzyme; experiment: JAK Caliper Enzyme Assay at 1 mM ATP; format: biochemical
Description: as §1

Row | IC50 (JAK3 enzyme [1]) [nM] | IC50 (JAK3 enzyme [2]) [nM] | SMILES
1 | 89.2 | 8990 | C=CC(=O)N1C[C@H](CO)C[C@H](Nc2ncnc3[nH]ccc23)C1 (single isomer, unassigned) [Example 99]
2 | 867 | > 10000 | C=CC(=O)N1C[C@H](Nc2ncnc3[nH]ccc23)CC[C@H]1[C@@H](C)O (single isomer, unassigned) [Example 110]
3 | 16.1 | 1890 | C=CC(=O)N1CCC(Oc2cnc3[nH]cc([C@H](C)O)c3n2)CC1 (single isomer, unassigned) [Example 118]
4 | 17.2 | 2540 | C=CC(=O)N1CC[C@H](Nc2cnc3[nH]cc(C(=O)NCC(F)(F)F)c3n2)C1 (single isomer, unassigned) [Example 254]
5 | 6.37 | 846 | C=CC(=O)N1CC[C@H](Nc2cnc3[nH]cc(C(=O)NCCC(F)(F)F)c3n2)C1 (single isomer, unassigned) [Example 255]
6 | 0.327 | 30 | C=CC(=O)N1CC[C@@H](Nc2cnc3[nH]cc(C(=O)N[C@@H](C)COC)c3n2)[C@@H](OC)C1 (single isomer, unassigned) [Example 355]
7 | 4.07 | 831 | C=CC(=O)N1CC[C@H](Nc2cnc3[nH]cc(C(=O)N[C@@H](C)COC)c3n2)[C@H](OC)C1 (single isomer, unassigned) [Example 356]
8 | 22.6 | 1920 | C=CC(=O)N1CCN(c2cnc3[nH]cc(C(=O)N[C@@H]4COC[C@@H]4c4ccc(F)cc4)c3n2)CC1(C)C (stereo in doubt) [Example 143, 2-(4-acryloyl-3,3-dimethylpiperazin-1-yl)-N-[4-(4-fluorophenyl)tetrahydrofuran-3-yl]-5H-pyrrolo[2,3-b]pyrazine-7-carboxamide]
9 | 48.7 | 5330 | C=CC(=O)N1C[C@@H](C)[C@@H](Nc2cnc3[nH]cc(C(=O)NCC)c3n2)C1 (stereo in doubt) [Example 248, 2-[(1-acryloyl-4-methylpyrrolidin-3-yl)amino]-N-ethyl-5H-pyrrolo[2,3-b]pyrazine-7-carboxamide]
10 | 72 | 7680 | C=CC(=O)N1C[C@@H](C)[C@@H](Nc2cnc3[nH]cc(C(=O)NCCOC)c3n2)C1 (stereo in doubt) [Example 253, 2-[(1-acryloyl-4-methylpyrrolidin-3-yl)amino]-N-(2-methoxyethyl)-5H-pyrrolo[2,3-b]pyrazine-7-carboxamide]
11 | 2.14 | 676 | C=CC(=O)N1C[C@H](C)[C@H](Nc2cnc3[nH]cc(C(=O)NCC)c3n2)C1 (stereo in doubt) [Example 260, 2-[(1-acryloyl-4-methylpyrrolidin-3-yl)amino]-N-ethyl-5H-pyrrolo[2,3-b]pyrazine-7-carboxamide]
12 | 31.2 | 4000 | C=CC(=O)N1CC[C@@H](Oc2cnc3[nH]cc(C(=O)N[C@@H](C)COC)c3n2)C1 [Example 53, 2-{[(3R)-1-acryloylpyrrolidin-3-yl]oxy}-N-[(2S)-1-methoxypropan-2-yl]-5H-pyrrolo[2,3-b]pyrazine-7-carboxamide]
13 | 13.5 | 2700 | C=CC(=O)N1CCC(N(C)c2cnc3[nH]cc(C(=O)N4CCC4)c3n2)CC1 [Example 62, 1-(4-{[7-(azetidin-1-ylcarbonyl)-5H-pyrrolo[2,3-b]pyrazin-2-yl](methyl)amino}piperidin-1-yl)prop-2-en-1-one]
14 | 2.44 | 379 | C=CC(=O)N1CCN(c2cnc3[nH]cc(C(=O)N[C@H](C)COC)c3n2)CC1(C)COC (stereo partly drawn) [Example 63, 2-(4-acryloyl-3-(methoxymethyl)-3-methylpiperazin-1-yl)-N-((R)-1-methoxypropan-2-yl)-5H-pyrrolo[2,3-b]pyrazine-7-carboxamide]
15 | 10.7 | 1110 | C#CCNC(=O)c1c[nH]c2ncc(N3CCN(C(=O)C=C)C(C)(C)C3)nc12 [Example 83, 2-(4-acryloyl-3,3-dimethylpiperazin-1-yl)-N-(prop-2-yn-1-yl)-5H-pyrrolo[2,3-b]pyrazine-7-carboxamide]

Source: patent US10703756B2, “Pyrrolo[2,3-D]pyrimidinyl, pyrrolo[2,3-B]pyrazinyl, pyrrolo[2,3-B]pyridinyl acrylamides and epoxides thereof” (Pfizer Inc., priority 2015, dated 2020)
